Common to all, as to test: Glasshouse assay for herbicidal activity (pre- and post-emergence), percentage phytotoxicity
Holding throughout (assay type): in vivo

Assay [1] relates to Alopecurus myosuroides (ALOMY). The note with it: Alopecurus myosuroides, Rate 250 g/ha, 100%=total damage, 0%=no damage. In outline:
(§1)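 Pot-grown plants treated one day after sowing (pre-emergence) or at about 12 days (post-emergence); glasshouse at 24/18° C (warm) or 20/16° C (cool species) day/night, 16 h light, 65% humidity. Visual % phytotoxicity (0 = none, 100 = total damage) scored at 15 DAA post or 20 DAA pre.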

Assay [2] concerns Echinochloa crus-galli (ECHCG). The note with it: Echinochloa crus-galli, Rate 250 g/ha, 100%=total damage, 0%=no damage. In outline: as §1
For assay [3], the system named is Avena fatua (AVEFA). The note with it: Avena fatua, Rate 250 g/ha, 100%=total damage, 0%=no damage. A digest of the protocol:
as §1

Assay [4] deals with Lolium perenne (LOLPE). The note with it: Lolium perenne, Rate 250 g/ha, 100%=total damage, 0%=no damage. A digest of the protocol: as §1
[5] abbreviates: post-emergence, 360 h, post-emergence, visual assessment 15 DAA, read-out: Post-emergence herbicidal activity (percentage phytotoxicity) ALOMY POST.
The mark [6] stands for this setting: pre-emergence, 480 h, pre-emergence, visual assessment 20 DAA, read-out: Pre-emergence herbicidal activity (percentage phytotoxicity) ALOMY PRE.
[7] abbreviates: post-emergence, 360 h, post-emergence, visual assessment 15 DAA, read-out: Post-emergence herbicidal activity (percentage phytotoxicity) ECHCG POST.
[8] abbreviates: pre-emergence, 480 h, pre-emergence, visual assessment 20 DAA, read-out: Pre-emergence herbicidal activity (percentage phytotoxicity) ECHCG PRE.
Where [9] appears, read: post-emergence, 360 h, post-emergence, visual assessment 15 DAA, read-out: Post-emergence herbicidal activity (percentage phytotoxicity) AVEFA POST.
[10] abbreviates: pre-emergence, 480 h, pre-emergence, visual assessment 20 DAA, read-out: Pre-emergence herbicidal activity (percentage phytotoxicity) AVEFA PRE.
The mark [11] stands for this setting: post-emergence, 360 h, post-emergence, visual assessment 15 DAA, read-out: Post-emergence herbicidal activity (percentage phytotoxicity) LOLPE POST.
The mark [12] stands for this setting: pre-emergence, 480 h, pre-emergence, visual assessment 20 DAA, read-out: Pre-emergence herbicidal activity (percentage phytotoxicity) LOLPE PRE.

Each structure is given as a SMILES string. Like-named read-outs stand apart in the source and are kept apart here.

On to `Cc1cc(-c2ncc(Cl)cn2)cc(C)c1C1C(=O)CC(CC(=O)N(C)Cc2cccc(F)c2)C1=O` (stereo not shown) [Compound B338], for which the pest or weed control at 250 g/ha in assay [1] (setting [5]) is 100%; in assay [1] (setting [6]), 100%; in assay [2] (setting [7]), 100%; in assay [2] (setting [8]), 100%; in assay [3] (setting [9]), 100%; in assay [3] (setting [10]), 80%. Besides, the figures for the pest or weed control at 250 g/ha in assay [4] (setting [11]) and in assay [4] (setting [12]) were 90% and 100%, respectively.
Take `Cc1cc(-c2ncc(Cl)cn2)cc(C)c1C1C(=O)CC(CC(=O)NCc2cccc(Br)c2)C1=O` (stereo not shown) [Compound B339]: the pest or weed control at 250 g/ha in assay [1] (setting [5]) came out at 100%; in assay [1] (setting [6]), 40%; in assay [2] (setting [7]) it was 100%; in assay [2] (setting [8]), 100%; in assay [3] (setting [9]) it was 100%; in assay [3] (setting [10]), 70%. The pest or weed control at 250 g/ha in assay [4] (setting [11]) is 100%; in assay [4] (setting [12]), 90%.
Take `Cc1cc(-c2ncc(Cl)cn2)cc(C)c1C1C(=O)CC(CC(=O)NC(C)C)C1=O` (stereo not shown) [Compound B340]: the pest or weed control at 250 g/ha in assay [1] (setting [5]), in assay [1] (setting [6]), in assay [2] (setting [7]), in assay [2] (setting [8]), in assay [3] (setting [9]) and in assay [3] (setting [10]) was 100% each time. The pest or weed control at 250 g/ha in assay [4] (setting [11]) and in assay [4] (setting [12]) was 100% each time.
With `C=C(C)CNC(=O)CC1CC(=O)C(c2c(C)cc(-c3ncc(Cl)cn3)cc2C)C1=O` (stereo not shown) [Compound B341], the pest or weed control at 250 g/ha in assay [1] (setting [5]) was 100%; in assay [1] (setting [6]), 100%; in assay [2] (setting [7]) it was 100%; in assay [2] (setting [8]) it was 100%; in assay [3] (setting [9]) it was 100%; in assay [3] (setting [10]) it was 80%. The pest or weed control at 250 g/ha amounted to 100% in assay [4] (setting [11]) and 80% in assay [4] (setting [12]).
As to `Cc1cc(-c2ncc(Cl)cn2)cc(C)c1C1C(=O)CC(CC(=O)NCC2CC2)C1=O` (stereo not shown) [Compound B342], the pest or weed control at 250 g/ha in assay [1] (setting [5]) was found to be 100%; in assay [1] (setting [6]) it was 100%; in assay [2] (setting [7]), 100%; in assay [2] (setting [8]) it was 100%; in assay [3] (setting [9]), 100%; in assay [3] (setting [10]), 90%. Moreover, the pest or weed control at 250 g/ha in assay [4] (setting [11]) and in assay [4] (setting [12]) was 100% in each case.
For the molecule `C#CC(C)(C)NC(=O)CC1CC(=O)C(c2c(C)cc(-c3ncc(Cl)cn3)cc2C)C1=O` (stereo not shown) [Compound B343], the pest or weed control at 250 g/ha in assay [1] (setting [5]) came to 100%; in assay [1] (setting [6]), 100%; in assay [2] (setting [7]), 100%; in assay [2] (setting [8]) it was 100%; in assay [3] (setting [9]), 100%; in assay [3] (setting [10]) it was 90%. Moreover, the pest or weed control at 250 g/ha in assay [4] (setting [11]) and in assay [4] (setting [12]) was 100% in each case.
With `COCC(C)(C)NC(=O)CC1CC(=O)C(c2c(C)cc(-c3ncc(Cl)cn3)cc2C)C1=O` (stereo not shown) [Compound B344], the pest or weed control at 250 g/ha in assay [1] (setting [5]) amounted to 100%; in assay [1] (setting [6]), 90%; in assay [2] (setting [7]), 100%; in assay [2] (setting [8]), 100%; in assay [3] (setting [9]), 100%; in assay [3] (setting [10]), 80%. Further, the pest or weed control at 250 g/ha in assay [4] (setting [11]) is 90%; in assay [4] (setting [12]), 80%.
Consider `C=CC(C)NC(=O)CC1CC(=O)C(c2c(C)cc(-c3ncc(Cl)cn3)cc2C)C1=O` (stereo not shown) [Compound B345], for which the pest or weed control at 250 g/ha in assay [1] (setting [5]) was determined as 100%; in assay [1] (setting [6]) it was 100%; in assay [2] (setting [7]) it was 100%; in assay [2] (setting [8]), 100%; in assay [3] (setting [9]), 100%; in assay [3] (setting [10]), 90%. The pest or weed control at 250 g/ha in assay [4] (setting [11]) and in assay [4] (setting [12]) was 100% throughout.
Turning to `COCC(C)NC(=O)CC1CC(=O)C(c2c(C)cc(-c3ncc(Cl)cn3)cc2C)C1=O` (stereo not shown) [Compound B346], the pest or weed control at 250 g/ha in assay [1] (setting [5]) was 100%; in assay [1] (setting [6]), 100%; in assay [2] (setting [7]) it was 100%; in assay [2] (setting [8]), 100%; in assay [3] (setting [9]), 100%; in assay [3] (setting [10]) it was 90%. Also, the pest or weed control at 250 g/ha in assay [4] (setting [11]) and in assay [4] (setting [12]) was 100% throughout.
On to `CCN(C)C(=O)CC1CC(=O)C(c2c(C)cc(-c3ncc(Cl)cn3)cc2C)C1=O` (stereo not shown) [Compound B347], for which the pest or weed control at 250 g/ha in assay [1] (setting [5]), in assay [1] (setting [6]), in assay [2] (setting [7]), in assay [2] (setting [8]), in assay [3] (setting [9]) and in assay [3] (setting [10]) was 100% throughout. Further, the pest or weed control at 250 g/ha in assay [4] (setting [11]) and in assay [4] (setting [12]) was 100% in each case.
With `Cc1cc(-c2ncc(Cl)cn2)cc(C)c1C1C(=O)CC(CC(=O)N(C)C(C)(C)C)C1=O` (stereo not shown) [Compound B348], the pest or weed control at 250 g/ha in assay [1] (setting [5]) amounted to 100%; in assay [1] (setting [6]) it was 80%; in assay [2] (setting [7]), 100%; in assay [2] (setting [8]), 100%; in assay [3] (setting [9]), 100%; in assay [3] (setting [10]) it was 80%. Further, the pest or weed control at 250 g/ha in assay [4] (setting [11]) was found to be 100%; in assay [4] (setting [12]), 90%.
With `C#CCN(C)C(=O)CC1CC(=O)C(c2c(C)cc(-c3ncc(Cl)cn3)cc2C)C1=O` (stereo not shown) [Compound B349], the pest or weed control at 250 g/ha in assay [1] (setting [5]) stood at 100%; in assay [1] (setting [6]), 100%; in assay [2] (setting [7]), 100%; in assay [2] (setting [8]), 90%; in assay [3] (setting [9]), 100%; in assay [3] (setting [10]) it was 90%. Moreover, the pest or weed control at 250 g/ha in assay [4] (setting [11]) worked out at 100%; in assay [4] (setting [12]), 90%.
On to `C=CCNC(=O)CC1CC(=O)C(c2c(C)cc(-c3ncc(Cl)cn3)cc2C)C1=O` (stereo not shown) [Compound B350], for which the pest or weed control at 250 g/ha in assay [1] (setting [5]) stood at 100%; in assay [1] (setting [6]), 100%; in assay [2] (setting [7]) it was 100%; in assay [2] (setting [8]) it was 100%; in assay [3] (setting [9]) it was 100%; in assay [3] (setting [10]), 90%. Further, the pest or weed control at 250 g/ha in assay [4] (setting [11]) and in assay [4] (setting [12]) was 100% throughout.
As for `Cc1cc(-c2ncc(Cl)cn2)cc(C)c1C1C(=O)CC(CC(=O)N(C)C(C)C)C1=O` (stereo not shown) [Compound B351], the pest or weed control at 250 g/ha in assay [1] (setting [5]) was 100%; in assay [1] (setting [6]) it was 100%; in assay [2] (setting [7]), 100%; in assay [2] (setting [8]) it was 100%; in assay [3] (setting [9]), 100%; in assay [3] (setting [10]) it was 90%. Further, the pest or weed control at 250 g/ha in assay [4] (setting [11]) and in assay [4] (setting [12]) was 100% in each case.
Consider `Cc1cc(-c2ncc(Cl)cn2)cc(C)c1C1C(=O)CC(CC(=O)NC/C=C/Cl)C1=O` (stereo not shown) [Compound B352], for which the pest or weed control at 250 g/ha in assay [1] (setting [5]) was found to be 100%; in assay [1] (setting [6]), 100%; in assay [2] (setting [7]), 100%; in assay [2] (setting [8]), 100%; in assay [3] (setting [9]), 90%; in assay [3] (setting [10]), 90%. The pest or weed control at 250 g/ha is 100% in assay [4] (setting [11]) and 90% in assay [4] (setting [12]).
For `Cc1cc(-c2ncc(Cl)cn2)cc(C)c1C1C(=O)CC(CC(=O)NCc2cccs2)C1=O` (stereo not shown) [Compound B353], the pest or weed control at 250 g/ha worked out at 90% in assay [1] (setting [5]); 80% in assay [1] (setting [6]); 100% in assay [2] (setting [7]); 100% in assay [2] (setting [8]); 100% in assay [3] (setting [9]); 90% in assay [3] (setting [10]). For the same molecule, the pest or weed control at 250 g/ha came out at 100% in assay [4] (setting [11]) and 90% in assay [4] (setting [12]).
With `Cc1cc(-c2ncc(Cl)cn2)cc(C)c1C1C(=O)CC(CC(=O)NCc2cccc(Cl)c2)C1=O` (stereo not shown) [Compound B354], the pest or weed control at 250 g/ha worked out at 90% in assay [1] (setting [5]); 70% in assay [1] (setting [6]); 100% in assay [2] (setting [7]); 90% in assay [2] (setting [8]); 100% in assay [3] (setting [9]); 80% in assay [3] (setting [10]). The pest or weed control at 250 g/ha in assay [4] (setting [11]) stood at 90%; in assay [4] (setting [12]), 80%.
